Tests used:
FKBP12 = target: T1, FKBP12 (Homo sapiens, UniProt P62942); test: SPR assay, binding affinity to FKBP12; settings: equilibrium dissociation constant
T1 construct: made in house; host or cells: E. coli
Source text: (§1) N-terminal avi-his6-tagged FKBP fusion proteins were expressed in E. coli and purified with nickel chromatography using standard procedures. Biotinylated his-avi-FKBPs were immobilized on a streptavidin chip using a Biacore 8K (GE Healthcare). […] The single-cycle kinetics data were fit to a 1:1 binding model to measure the association rate ka (1/Ms), the dissociation rate kd (1/s) and the affinity KD (M). […] The single-cycle kinetics data was fit to a 1:1 binding model to measure the association rate ka (1/Ms), the dissociation rate kd (1/s) and the apparent affinity KD (M) for ternary complex formation. The equilibrium dissociation constants (KD) to FKBP12, FKBP51, and FKBP52 are shown below in Table 6.

FKBP51 = target: T2, FKBP51 (Homo sapiens, UniProt Q13451); test: SPR assay, binding affinity to FKBP51; settings: equilibrium dissociation constant
T2 construct: made in house; host or cells: E. coli
T2 sequence (Q13451 1-457): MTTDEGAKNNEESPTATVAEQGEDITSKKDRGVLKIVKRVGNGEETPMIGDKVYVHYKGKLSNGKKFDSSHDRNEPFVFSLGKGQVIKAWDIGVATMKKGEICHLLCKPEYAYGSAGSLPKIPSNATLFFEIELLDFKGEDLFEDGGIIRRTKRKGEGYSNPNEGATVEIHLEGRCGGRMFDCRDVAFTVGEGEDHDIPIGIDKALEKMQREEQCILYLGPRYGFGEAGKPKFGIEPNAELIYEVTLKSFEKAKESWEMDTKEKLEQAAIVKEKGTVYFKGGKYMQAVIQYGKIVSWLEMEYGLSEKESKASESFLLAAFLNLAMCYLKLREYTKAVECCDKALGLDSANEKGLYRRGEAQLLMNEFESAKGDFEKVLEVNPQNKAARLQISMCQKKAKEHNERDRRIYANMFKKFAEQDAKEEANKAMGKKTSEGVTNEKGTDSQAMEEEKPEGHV
Source text: as §1

FKBP52 = target: T3, FKBP52 (Homo sapiens, UniProt Q02790); test: SPR assay, binding affinity to FKBP52; settings: equilibrium dissociation constant
T3 construct: made in house; host or cells: E. coli
T3 sequence (Q02790 1-459): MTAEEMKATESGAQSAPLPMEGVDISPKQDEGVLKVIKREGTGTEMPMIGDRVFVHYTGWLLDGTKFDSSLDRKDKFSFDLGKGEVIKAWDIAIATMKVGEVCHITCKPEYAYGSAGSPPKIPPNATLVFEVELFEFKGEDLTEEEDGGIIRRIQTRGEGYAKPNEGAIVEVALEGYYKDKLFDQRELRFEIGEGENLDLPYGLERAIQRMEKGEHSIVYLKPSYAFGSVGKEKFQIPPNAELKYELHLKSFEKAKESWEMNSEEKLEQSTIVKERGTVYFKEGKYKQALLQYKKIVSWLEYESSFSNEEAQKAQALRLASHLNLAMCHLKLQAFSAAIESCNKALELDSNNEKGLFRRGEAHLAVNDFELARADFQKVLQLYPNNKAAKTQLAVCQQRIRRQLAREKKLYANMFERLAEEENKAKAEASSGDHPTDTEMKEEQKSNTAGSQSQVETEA
Experimental: N-terminal avi-his6-tagged FKBP fusion proteins were expressed in E. coli and purified with nickel chromatography using standard procedures. Biotinylated his-avi-FKBPs were immobilized on a streptavidin chip using a Biacore 8K (GE Healthcare). To determine the kinetics-affinity of the rapalogs for FKBPs, rapalogs were diluted in DMSO to 50× working concentration. Next, 3.1 uLs of each rapalog solution was added to 150 uLs of buffer (50 mM Tris pH 7.5/150 mM NaCl/0.01% Tween 20/1 mM DTT) in a 384 deep well plate (greiner bio-one/78127) and mixed using a Biomek FX. The rapalog solution gradients (6 concentrations/2 fold dilutions, 3.1-100 nM or 31-1000 nM or 310-10000 nM) were then injected at 45 uL/min for 120 seconds: contact time and dissociation time was 1800 seconds in running buffer (50 mM Tris pH 7.5/150 mM NaCl/0.01% Tween 20/1 mM DTT/2% DMSO). The single-cycle kinetics data were fit to a 1:1 binding model to measure the association rate ka (1/Ms), the dissociation rate kd (1/s) and the affinity KD (M). […] 3.1 uLs of the 500 μM rapalog solutions were added to 150 uLs of the mTOR samples in a 384 deep well plate (greiner bio-one/78127) and mixed using a Biomek FX. The mTOR solution gradients were then injected at 45 uL/min for 120 seconds: contact time and dissociation time was 1800 seconds in running buffer (50 mM Tris pH 7.5/150 mM NaCl/0.01% Tween 20/1 mM DTT/2% DMSO). The single-cycle kinetics data was fit to a 1:1 binding model to measure the association rate ka (1/Ms), the dissociation rate kd (1/s) and the apparent affinity KD (M) for ternary complex formation.
The equilibrium dissociation constants (KD) to FKBP12, FKBP51, and FKBP52 are shown below in Table 6.

[1] = system: mTORc1 signaling, pS6 (Ser240/244) in MEF TSCl−/− cells; test: Cell-based assay for rapalog potency (pS6) in MEF TSCl−/− cells; settings: Mus musculus, 2 hours treatment, average from multiple assays
Experimental: Rapalog potency was determined using MEF TSCl−/− cell based assay. MEF TSCl−/− cells are Mouse Embryonic Fibroblasts deficient in Tuberous sclerosis protein—TSCl, which negatively regulates mTORc1 signaling and thus display constitutive mTORc1 activation, resulting in phosphorylation (activation) of downstream molecules. This cell-based assay is used to measure inhibition (de-phosphorylation) of S6 and 4EBP1 by rapalogs or other mTOR inhibitors.
MEF TSCl−/− cells were plated on Poly-D-lysine coated 384 well Griener clear bottom plates and incubated overnight at 37° C., 5% CO2. On the following day, cells were washed 8 times with “Hard starve” solution (1 L DPBS+1 g D-(+) glucose+10 ml of 7.5% Sodium Bicarbonate+20 ml of 1M HEPES) and incubated for further 2 hours in the same solution. Cells were next treated with compounds with decreasing concentrations (8 points at 3.16 fold dilutions) and incubated for 2 hours at 37° C., 5% CO2. Cells were fixed with 4% paraformaldehyde for 30 min and washed 5 times with TBS-EDTA followed by immuno-staining with fluorescent tag labeled antibodies for pS6 (Ser240/244) (Cell Signaling #9468) and p4EBP1 (Thr 37/46) (Cell Signaling #5123). Nuclei were visualized with Hoechst (ThermoFisher Scientific #H3570) staining. Cells were imaged (InCell 600) using respective fluorescence channels and the potency of mTOR inhibitors was defined by pS6 IC50 (nM).
In vitro potency of mTOR inhibitors was defined by pS6 IC50 (nM) in MEF TSCl−/− cells.
IC50 values are calculated as the average from multiple assays.

T1 sequence (P62942 whole entry): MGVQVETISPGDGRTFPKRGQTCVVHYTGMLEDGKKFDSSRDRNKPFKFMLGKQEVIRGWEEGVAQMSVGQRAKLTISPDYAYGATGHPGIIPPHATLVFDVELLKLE

| Compound | Kd (FKBP12) [nM] | Kd (FKBP51) [nM] | Kd (FKBP52) [nM] | IC50 [1] [nM] |
| --- | --- | --- | --- | --- |
| CO[C@@H]1C[C@H](C[C@@H](C)[C@@H]2CC[C@H](C)/C=C(\C)[C@@H](O)[C@@H](OC)C(=O)[C@H](C)C[C@H](C)/C=C/C=C/C=C(\C)[C@@H](NS(C)(=O)=O)C[C@@H]3CC[C@@H](C)[C@@](O)(O3)C(=O)C(=O)N3CCCC[C@H]3C(=O)O2)CC[C@H]1OP(C)(C)=O [Compound 24] | 0.54 | 25 | 90 | 0.52 |
| CO[C@@H]1C[C@H](C[C@@H](C)[C@@H]2CC[C@H](C)/C=C(\C)[C@@H](O)[C@@H](OC)C(=O)[C@H](C)C[C@H](C)/C=C/C=C/C=C(\C)[C@@H](NS(C)(=O)=O)C[C@@H]3CC[C@@H](C)[C@@](O)(O3)C(=O)C(=O)N3CCCC[C@H]3C(=O)O2)CC[C@H]1OCCO [Compound 26] | 0.83 | 47 | 80 | 0.086 |
| CO[C@@H]1C[C@H](C[C@@H](C)[C@@H]2CC[C@H](C)/C=C(\C)[C@@H](O)[C@@H](OC)C(=O)[C@H](C)C[C@H](C)/C=C/C=C/C=C(\C)[C@H](NS(=O)(=O)CCCCl)C[C@@H]3CC[C@@H](C)[C@@](O)(O3)C(=O)C(=O)N3CCCC[C@H]3C(=O)O2)CC[C@H]1O [Compound 18] | 0.73 | 573 | 436 | 6.6 |
| CO[C@@H]1C[C@H](C[C@@H](C)[C@@H]2CC[C@H](C)/C=C(\C)[C@@H](O)[C@@H](OC)C(=O)[C@H](C)C[C@H](C)/C=C/C=C/C=C(\C)[C@H](NS(=O)(=O)C3CC3)C[C@@H]3CC[C@@H](C)[C@@](O)(O3)C(=O)C(=O)N3CCCC[C@H]3C(=O)O2)CC[C@H]1O [Compound 12] | 0.39 | 117 | 135 | 1.1 |
| CO[C@@H]1C[C@H](C[C@@H](C)[C@@H]2CC[C@H](C)/C=C(\C)[C@@H](O)[C@@H](OC)C(=O)[C@H](C)C[C@H](C)/C=C/C=C/C=C(\C)[C@@H](NS(=O)(=O)C3CC3)C[C@@H]3CC[C@@H](C)[C@@](O)(O3)C(=O)C(=O)N3CCCC[C@H]3C(=O)O2)CC[C@H]1O [Compound 11] | 0.29 | 45 | 63 | 0.94 |
| CO[C@@H]1C[C@H](C[C@@H](C)[C@@H]2CC[C@H](C)/C=C(\C)[C@@H](O)[C@@H](OC)C(=O)[C@H](C)C[C@H](C)/C=C/C=C/C=C(\C)[C@@H](NS(C)(=O)=O)C[C@@H]3CC[C@@H](C)[C@@](O)(O3)C(=O)C(=O)N3CCCC[C@H]3C(=O)O2)CC[C@@H]1n1cnnn1 [Compound 22] |  |  |  | 0.11 |
| CCCS(=O)(=O)N[C@H]1C[C@@H]2CC[C@@H](C)[C@@](O)(O2)C(=O)C(=O)N2CCCC[C@H]2C(=O)O[C@H]([C@H](C)C[C@@H]2CC[C@@H](O)[C@H](OC)C2)CC[C@H](C)/C=C(\C)[C@@H](O)[C@@H](OC)C(=O)[C@H](C)C[C@H](C)/C=C/C=C/C=C/1C [Compound 5] |  |  |  | 1.8 |
| CCCS(=O)(=O)N[C@@H]1C[C@@H]2CC[C@@H](C)[C@@](O)(O2)C(=O)C(=O)N2CCCC[C@H]2C(=O)O[C@H]([C@H](C)C[C@@H]2CC[C@@H](O)[C@H](OC)C2)CC[C@H](C)/C=C(\C)[C@@H](O)[C@@H](OC)C(=O)[C@H](C)C[C@H](C)/C=C/C=C/C=C/1C [Compound 6] |  |  |  | 13 |

Second part, the compound after the results:

| Kd (FKBP12) [nM] | Kd (FKBP51) [nM] | Kd (FKBP52) [nM] | IC50 [1] [nM] | Compound |
| --- | --- | --- | --- | --- |
| 0.061 | 11 | 9.8 | 0.55 | CO[C@@H]1C[C@H](C[C@@H](C)[C@@H]2CC[C@H](C)/C=C(\C)[C@@H](O)[C@@H](OC)C(=O)[C@H](C)C[C@H](C)/C=C/C=C/C=C(\C)[C@H](NS(C)(=O)=O)C[C@@H]3CC[C@@H](C)[C@@](O)(O3)C(=O)C(=O)N3CCCC[C@H]3C(=O)O2)CC[C@H]1O [Compound 1] |
| 0.2 | 40 | 61 | 0.26 | CCS(=O)(=O)N[C@H]1C[C@@H]2CC[C@@H](C)[C@@](O)(O2)C(=O)C(=O)N2CCCC[C@H]2C(=O)O[C@H]([C@H](C)C[C@@H]2CC[C@@H](O)[C@H](OC)C2)CC[C@H](C)/C=C(\C)[C@@H](O)[C@@H](OC)C(=O)[C@H](C)C[C@H](C)/C=C/C=C/C=C/1C [Compound 3] |
| 6.5 | 1230 | 1380 | 0.3 | CO[C@@H]1C[C@H](C[C@@H](C)[C@@H]2CC[C@H](C)/C=C(\C)[C@@H](O)[C@@H](OC)C(=O)[C@H](C)C[C@H](C)/C=C/C=C/C=C(\C)C(N(C)S(C)(=O)=O)C[C@@H]3CC[C@@H](C)[C@@](O)(O3)C(=O)C(=O)N3CCCC[C@H]3C(=O)O2)CC[C@H]1O (single isomer, unassigned) [Compound 42] |
| 0.55 | 315 | 256 | 1.2 | CCS(=O)(=O)N[C@@H]1C[C@@H]2CC[C@@H](C)[C@@](O)(O2)C(=O)C(=O)N2CCCC[C@H]2C(=O)O[C@H]([C@H](C)C[C@@H]2CC[C@@H](O)[C@H](OC)C2)CC[C@H](C)/C=C(\C)[C@@H](O)[C@@H](OC)C(=O)[C@H](C)C[C@H](C)/C=C/C=C/C=C/1C [Compound 4] |
|  |  |  | 2.4 | CO[C@@H]1C[C@H](C[C@@H](C)[C@@H]2CC[C@H](C)/C=C(\C)[C@@H](O)[C@@H](OC)C(=O)[C@H](C)C[C@H](C)/C=C/C=C/C=C(\C)[C@@H](NS(=O)(=O)C(C)C)C[C@@H]3CC[C@@H](C)[C@@](O)(O3)C(=O)C(=O)N3CCCC[C@H]3C(=O)O2)CC[C@H]1O [Compound 7] |
|  |  |  | 0.21 | CO[C@@H]1C[C@H](C[C@@H](C)[C@@H]2CC[C@H](C)/C=C(\C)[C@@H](O)[C@@H](OC)C(=O)[C@H](C)C[C@H](C)/C=C/C=C/C=C(\C)[C@@H](NO)C[C@@H]3CC[C@@H](C)[C@@](O)(O3)C(=O)C(=O)N3CCCC[C@H]3C(=O)O2)CC[C@H]1O [Compound 37] |
